In experiment [1] the target is Tyrosine-protein kinase Fyn (Homo sapiens, UniProt P06241). Type of experiment: functional.
In experiment [2] the target is 5'-AMP-activated protein kinase catalytic subunit alpha-1 (Homo sapiens, UniProt Q13131). The experiment is classed as functional.
Experiment [3] concerns the target Serine/threonine-protein kinase PAK 1 (Homo sapiens, UniProt Q13153). Type of experiment: functional.
Experiment [4] has as its target Serine/threonine-protein kinase N2 (Homo sapiens, UniProt Q16513). Type of experiment: functional.
Experiment [5] addresses MAP kinase-activated protein kinase 5 (Homo sapiens, UniProt Q8IW41). The experiment is classed as functional.
The target in experiment [6] is ALK tyrosine kinase receptor (Homo sapiens, UniProt Q9UM73). Type of experiment: functional.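 Also: ALK tested as one member of a kinase panel screen.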
Experiment [7] concerns the target Serine/threonine-protein kinase PLK1 (Homo sapiens, UniProt P53350). Type of experiment: functional.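 Also: PLK1 measured as one member of a kinome-wide profiling panel.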
Experiment [8] addresses Dual specificity mitogen-activated protein kinase kinase 1 (Homo sapiens, UniProt Q02750). Description: Navigating the Kinome. Panel member name: MAP2K1. Type of experiment: functional.
The target of experiment [9] is 3-phosphoinositide-dependent protein kinase 1 (Homo sapiens, UniProt O15530). Type of experiment: functional.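 Also: value comes from the Navigating the Kinome panel, PDPK1 member.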
Chain of 3-phosphoinositide-dependent protein kinase 1 (O15530 whole entry): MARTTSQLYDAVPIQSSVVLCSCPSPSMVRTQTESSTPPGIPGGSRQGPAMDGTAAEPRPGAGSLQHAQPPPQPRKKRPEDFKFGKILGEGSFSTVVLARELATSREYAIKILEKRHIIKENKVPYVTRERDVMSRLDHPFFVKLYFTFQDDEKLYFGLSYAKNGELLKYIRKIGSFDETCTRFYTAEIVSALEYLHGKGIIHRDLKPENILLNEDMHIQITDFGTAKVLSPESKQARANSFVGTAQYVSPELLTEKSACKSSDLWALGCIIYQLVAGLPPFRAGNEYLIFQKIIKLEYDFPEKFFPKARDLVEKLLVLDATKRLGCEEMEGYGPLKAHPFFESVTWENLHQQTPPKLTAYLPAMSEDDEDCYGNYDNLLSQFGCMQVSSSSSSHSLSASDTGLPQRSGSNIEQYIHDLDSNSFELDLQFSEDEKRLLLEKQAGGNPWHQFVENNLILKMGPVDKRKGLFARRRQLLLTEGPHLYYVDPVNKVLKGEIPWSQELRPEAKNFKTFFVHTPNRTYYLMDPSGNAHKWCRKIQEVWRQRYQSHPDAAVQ
Experiment [10] has as its target Tyrosine-protein kinase ITK/TSK (Homo sapiens, UniProt Q08881). Type of experiment: functional.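 Also: affinity for ITK measured as one member of a broad kinase panel profiling binding across the kinome.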
Experiment [11] addresses High affinity nerve growth factor receptor (Homo sapiens, UniProt P04629). The experiment is classed as functional.
The target of experiment [12] is Tyrosine-protein kinase Fer (Homo sapiens, UniProt P16591). Type of experiment: functional.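 Also: FER tested as one member of a kinome panel.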
Experiment [13] has as its target Casein kinase I isoform delta (Homo sapiens, UniProt P48730). The experiment is classed as functional.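 Also: measured as one member (CSNK1D) of a kinome panel.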
Experiment [14] addresses Inhibitor of nuclear factor kappa-B kinase subunit epsilon (Homo sapiens, UniProt Q14164). Description: Navigating the Kinome. Panel member name: IKBKE. The experiment is classed as functional.
Experiment [15] concerns the target Interleukin-1 receptor-associated kinase 1 (Homo sapiens, UniProt P51617). Type of experiment: functional.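 Also: IRAK1 tested as one member of a kinome panel.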
For experiment [16], the target named is Casein kinase I isoform gamma-1 (Homo sapiens, UniProt Q9HCP0). The experiment is classed as functional.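 Also: measured as the CSNK1G1 member of a kinome profiling panel.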
The target of experiment [17] is Peroxisome proliferator-activated receptor gamma/Nuclear receptor corepressor 2 (Homo sapiens, UniProt P37231+Q9Y618). Type of experiment: functional.
Experiment [18] in a line: Luminescence Cell-Based Dose Response HTS to Identify Inhibitors of 5'UTR Stem-Loop Driven Prion Protein mRNA Translation in H4 Neuroglioblastoma Cells. [Related pubchem assays: 1827 (Project Summary), 1813 (Primary HTS)]. Type of experiment: functional.
Experiment [19] concerns the target T1, Histone-lysine N-methyltransferase NSD2 (Homo sapiens, UniProt O96028).
T1 sequence (O96028 whole entry): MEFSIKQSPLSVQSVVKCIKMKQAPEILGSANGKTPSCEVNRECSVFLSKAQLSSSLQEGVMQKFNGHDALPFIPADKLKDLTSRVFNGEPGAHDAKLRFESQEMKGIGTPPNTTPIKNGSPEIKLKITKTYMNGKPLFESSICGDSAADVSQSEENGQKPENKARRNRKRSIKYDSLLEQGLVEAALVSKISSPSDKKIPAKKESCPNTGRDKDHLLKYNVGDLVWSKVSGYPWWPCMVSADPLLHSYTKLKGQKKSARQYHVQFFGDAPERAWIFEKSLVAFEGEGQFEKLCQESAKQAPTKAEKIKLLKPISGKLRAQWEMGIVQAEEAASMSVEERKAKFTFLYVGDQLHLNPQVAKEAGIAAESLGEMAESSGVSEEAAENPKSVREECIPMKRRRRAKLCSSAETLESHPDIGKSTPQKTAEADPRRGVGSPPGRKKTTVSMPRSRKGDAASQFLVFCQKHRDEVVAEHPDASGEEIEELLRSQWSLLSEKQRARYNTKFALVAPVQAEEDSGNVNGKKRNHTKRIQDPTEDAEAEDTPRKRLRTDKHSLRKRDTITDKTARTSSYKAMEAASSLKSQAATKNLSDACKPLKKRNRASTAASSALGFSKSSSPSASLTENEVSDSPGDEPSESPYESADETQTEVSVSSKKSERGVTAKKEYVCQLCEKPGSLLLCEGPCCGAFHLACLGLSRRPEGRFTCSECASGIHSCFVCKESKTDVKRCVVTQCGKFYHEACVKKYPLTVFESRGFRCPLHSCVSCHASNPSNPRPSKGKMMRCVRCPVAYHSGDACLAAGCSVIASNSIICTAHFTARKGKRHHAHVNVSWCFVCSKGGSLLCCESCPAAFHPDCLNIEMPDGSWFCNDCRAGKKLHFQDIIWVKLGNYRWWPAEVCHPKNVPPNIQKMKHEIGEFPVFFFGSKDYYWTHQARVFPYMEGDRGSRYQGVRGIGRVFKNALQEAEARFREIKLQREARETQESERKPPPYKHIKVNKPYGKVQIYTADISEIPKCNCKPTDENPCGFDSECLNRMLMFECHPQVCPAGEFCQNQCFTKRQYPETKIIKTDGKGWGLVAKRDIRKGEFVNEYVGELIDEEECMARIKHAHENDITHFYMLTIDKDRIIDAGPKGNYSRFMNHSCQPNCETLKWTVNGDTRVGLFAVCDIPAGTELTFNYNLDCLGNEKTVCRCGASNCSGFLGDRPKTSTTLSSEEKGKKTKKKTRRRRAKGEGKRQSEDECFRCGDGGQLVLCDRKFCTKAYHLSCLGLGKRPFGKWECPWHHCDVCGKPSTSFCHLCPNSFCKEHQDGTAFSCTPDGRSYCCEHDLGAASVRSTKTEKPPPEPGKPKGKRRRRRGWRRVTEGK
Type of experiment: biochemical.

A short description of experiment [20]: inhibitors of firefly luciferase expression or activity, dose response, H4 neuroglioma cells, luminescence (AID 1990). Type of experiment: functional, cell-based.
The target in experiment [21] is Tyrosyl-DNA phosphodiesterase 2 (Homo sapiens, UniProt O95551). Description: human TDP2 enzyme inhibitors, dose response, biochemical, epi absorbance, IC50 (AID 743297).
Chain of Tyrosyl-DNA phosphodiesterase 2 (O95551 whole entry): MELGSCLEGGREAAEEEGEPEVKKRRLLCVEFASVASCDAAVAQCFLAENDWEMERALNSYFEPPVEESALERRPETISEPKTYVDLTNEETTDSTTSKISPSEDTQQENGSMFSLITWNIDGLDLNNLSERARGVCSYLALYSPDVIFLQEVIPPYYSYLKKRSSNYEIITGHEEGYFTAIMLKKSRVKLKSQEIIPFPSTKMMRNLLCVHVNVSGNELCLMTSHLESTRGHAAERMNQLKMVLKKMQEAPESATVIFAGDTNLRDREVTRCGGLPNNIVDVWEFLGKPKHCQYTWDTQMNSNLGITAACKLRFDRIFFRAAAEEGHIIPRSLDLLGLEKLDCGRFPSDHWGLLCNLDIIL
Experiment [22] deals with T2, Calpain-2 catalytic subunit (Sus scrofa, UniProt P43367).
T2 sequence (P43367 whole entry): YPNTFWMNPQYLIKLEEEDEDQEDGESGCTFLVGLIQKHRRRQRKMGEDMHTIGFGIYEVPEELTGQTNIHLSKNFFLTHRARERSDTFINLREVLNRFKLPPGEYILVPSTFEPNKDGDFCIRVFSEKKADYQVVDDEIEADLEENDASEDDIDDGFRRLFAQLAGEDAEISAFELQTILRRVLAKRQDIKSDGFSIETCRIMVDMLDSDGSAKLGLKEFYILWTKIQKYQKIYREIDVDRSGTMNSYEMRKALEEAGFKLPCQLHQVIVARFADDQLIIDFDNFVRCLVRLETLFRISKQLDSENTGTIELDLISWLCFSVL
Description: pig calpain II inhibitor potency, dose response, biochemical, fluorogenic peptide substrate (AID 1420). Type of experiment: functional.

“And” between values parts separate entries of the source, which are not always exact repeats. Equal entries are not always repeated. The source made the active and inactive calls.

Chain of Serine/threonine-protein kinase N2 (Q16513 whole entry): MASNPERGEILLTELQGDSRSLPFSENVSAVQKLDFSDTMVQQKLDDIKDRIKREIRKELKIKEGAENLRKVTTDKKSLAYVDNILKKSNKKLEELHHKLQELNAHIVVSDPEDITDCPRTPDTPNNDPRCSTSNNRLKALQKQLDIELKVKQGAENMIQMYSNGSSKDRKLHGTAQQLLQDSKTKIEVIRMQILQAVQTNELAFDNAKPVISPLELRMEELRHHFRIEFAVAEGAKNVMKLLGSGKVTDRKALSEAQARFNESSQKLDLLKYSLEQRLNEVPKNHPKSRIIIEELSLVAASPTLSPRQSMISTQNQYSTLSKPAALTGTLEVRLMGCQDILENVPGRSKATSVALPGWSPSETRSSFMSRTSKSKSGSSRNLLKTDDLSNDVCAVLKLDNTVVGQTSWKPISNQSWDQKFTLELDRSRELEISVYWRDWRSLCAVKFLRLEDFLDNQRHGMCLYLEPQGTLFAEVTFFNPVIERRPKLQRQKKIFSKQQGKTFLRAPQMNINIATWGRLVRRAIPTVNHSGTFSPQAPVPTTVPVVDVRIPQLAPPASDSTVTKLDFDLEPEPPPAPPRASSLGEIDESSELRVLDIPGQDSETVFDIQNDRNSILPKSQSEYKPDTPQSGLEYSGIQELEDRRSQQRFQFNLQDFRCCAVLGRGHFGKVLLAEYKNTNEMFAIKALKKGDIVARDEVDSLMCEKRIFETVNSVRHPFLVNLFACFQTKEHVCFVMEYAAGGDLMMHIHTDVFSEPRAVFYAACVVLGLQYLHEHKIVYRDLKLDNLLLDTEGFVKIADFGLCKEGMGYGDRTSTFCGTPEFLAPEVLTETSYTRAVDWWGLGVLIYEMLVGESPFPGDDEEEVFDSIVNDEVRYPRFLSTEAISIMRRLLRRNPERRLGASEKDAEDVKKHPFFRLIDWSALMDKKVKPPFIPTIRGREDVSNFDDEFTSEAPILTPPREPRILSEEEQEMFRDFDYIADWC
Chain of High affinity nerve growth factor receptor (P04629 whole entry): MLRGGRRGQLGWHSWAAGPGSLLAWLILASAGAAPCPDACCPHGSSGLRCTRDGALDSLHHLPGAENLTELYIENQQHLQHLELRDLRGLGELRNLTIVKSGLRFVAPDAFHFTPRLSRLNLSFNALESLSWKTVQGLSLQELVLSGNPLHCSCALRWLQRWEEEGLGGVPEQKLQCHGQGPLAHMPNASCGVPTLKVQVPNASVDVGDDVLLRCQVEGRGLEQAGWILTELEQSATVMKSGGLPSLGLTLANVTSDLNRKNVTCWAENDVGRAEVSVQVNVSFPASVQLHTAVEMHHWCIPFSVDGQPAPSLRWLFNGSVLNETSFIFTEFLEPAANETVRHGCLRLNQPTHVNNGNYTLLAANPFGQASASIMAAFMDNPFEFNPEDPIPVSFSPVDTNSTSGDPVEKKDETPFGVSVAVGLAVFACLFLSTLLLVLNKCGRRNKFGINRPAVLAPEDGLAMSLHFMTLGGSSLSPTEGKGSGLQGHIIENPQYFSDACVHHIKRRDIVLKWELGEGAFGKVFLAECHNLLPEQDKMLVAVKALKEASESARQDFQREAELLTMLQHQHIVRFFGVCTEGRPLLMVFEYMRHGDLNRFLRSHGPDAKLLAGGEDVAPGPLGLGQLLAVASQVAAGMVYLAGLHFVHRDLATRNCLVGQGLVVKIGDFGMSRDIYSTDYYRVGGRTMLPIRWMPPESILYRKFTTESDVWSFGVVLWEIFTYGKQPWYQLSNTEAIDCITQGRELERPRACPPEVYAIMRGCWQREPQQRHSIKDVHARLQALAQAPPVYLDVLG
Chain of MAP kinase-activated protein kinase 5 (Q8IW41 whole entry): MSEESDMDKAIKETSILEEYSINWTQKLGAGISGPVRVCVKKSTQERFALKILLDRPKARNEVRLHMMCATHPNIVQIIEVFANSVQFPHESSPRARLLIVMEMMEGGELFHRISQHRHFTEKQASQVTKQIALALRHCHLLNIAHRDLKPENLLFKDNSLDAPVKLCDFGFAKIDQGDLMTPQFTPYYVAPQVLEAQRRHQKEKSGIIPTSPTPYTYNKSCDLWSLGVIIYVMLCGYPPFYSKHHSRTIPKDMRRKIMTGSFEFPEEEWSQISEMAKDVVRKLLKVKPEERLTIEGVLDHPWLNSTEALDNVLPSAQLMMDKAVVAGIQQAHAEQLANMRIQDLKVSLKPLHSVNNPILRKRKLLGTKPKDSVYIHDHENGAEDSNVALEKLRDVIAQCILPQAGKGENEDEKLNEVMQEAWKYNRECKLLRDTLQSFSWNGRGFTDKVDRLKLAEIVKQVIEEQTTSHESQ
Chain of 5'-AMP-activated protein kinase catalytic subunit alpha-1 (Q13131 whole entry): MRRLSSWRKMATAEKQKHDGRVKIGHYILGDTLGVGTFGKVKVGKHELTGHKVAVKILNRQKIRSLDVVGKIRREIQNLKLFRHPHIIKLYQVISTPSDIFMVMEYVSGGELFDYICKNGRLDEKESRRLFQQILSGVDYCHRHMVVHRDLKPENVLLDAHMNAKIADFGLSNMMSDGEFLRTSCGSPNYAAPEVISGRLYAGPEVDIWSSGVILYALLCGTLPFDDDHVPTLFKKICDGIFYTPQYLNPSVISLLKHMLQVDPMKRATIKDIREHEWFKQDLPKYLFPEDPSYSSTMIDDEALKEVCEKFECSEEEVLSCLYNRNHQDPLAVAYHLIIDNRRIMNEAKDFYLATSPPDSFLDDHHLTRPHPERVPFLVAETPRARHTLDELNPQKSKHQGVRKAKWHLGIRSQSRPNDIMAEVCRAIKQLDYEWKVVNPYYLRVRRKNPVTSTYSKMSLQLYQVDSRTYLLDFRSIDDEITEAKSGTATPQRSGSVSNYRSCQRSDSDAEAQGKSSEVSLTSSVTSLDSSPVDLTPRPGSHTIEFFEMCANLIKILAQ
Chain of Tyrosine-protein kinase ITK/TSK (Q08881 whole entry): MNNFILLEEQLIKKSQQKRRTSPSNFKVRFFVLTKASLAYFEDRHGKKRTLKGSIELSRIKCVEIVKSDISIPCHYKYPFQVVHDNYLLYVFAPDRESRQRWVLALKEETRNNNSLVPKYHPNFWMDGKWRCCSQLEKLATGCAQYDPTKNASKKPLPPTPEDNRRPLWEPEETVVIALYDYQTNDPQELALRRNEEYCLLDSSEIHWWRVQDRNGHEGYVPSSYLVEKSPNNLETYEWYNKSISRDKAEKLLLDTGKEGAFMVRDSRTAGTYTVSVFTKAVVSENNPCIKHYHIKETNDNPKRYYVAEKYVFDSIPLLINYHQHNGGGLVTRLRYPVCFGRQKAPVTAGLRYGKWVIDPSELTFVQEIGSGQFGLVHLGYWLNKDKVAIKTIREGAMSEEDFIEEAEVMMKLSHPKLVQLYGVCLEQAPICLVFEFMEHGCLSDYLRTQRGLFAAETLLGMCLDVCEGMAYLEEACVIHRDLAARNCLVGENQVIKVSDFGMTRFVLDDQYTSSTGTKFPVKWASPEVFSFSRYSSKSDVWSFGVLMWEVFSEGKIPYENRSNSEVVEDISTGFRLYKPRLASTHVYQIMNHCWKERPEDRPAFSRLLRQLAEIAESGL
Chain of Tyrosine-protein kinase Fyn (P06241 whole entry): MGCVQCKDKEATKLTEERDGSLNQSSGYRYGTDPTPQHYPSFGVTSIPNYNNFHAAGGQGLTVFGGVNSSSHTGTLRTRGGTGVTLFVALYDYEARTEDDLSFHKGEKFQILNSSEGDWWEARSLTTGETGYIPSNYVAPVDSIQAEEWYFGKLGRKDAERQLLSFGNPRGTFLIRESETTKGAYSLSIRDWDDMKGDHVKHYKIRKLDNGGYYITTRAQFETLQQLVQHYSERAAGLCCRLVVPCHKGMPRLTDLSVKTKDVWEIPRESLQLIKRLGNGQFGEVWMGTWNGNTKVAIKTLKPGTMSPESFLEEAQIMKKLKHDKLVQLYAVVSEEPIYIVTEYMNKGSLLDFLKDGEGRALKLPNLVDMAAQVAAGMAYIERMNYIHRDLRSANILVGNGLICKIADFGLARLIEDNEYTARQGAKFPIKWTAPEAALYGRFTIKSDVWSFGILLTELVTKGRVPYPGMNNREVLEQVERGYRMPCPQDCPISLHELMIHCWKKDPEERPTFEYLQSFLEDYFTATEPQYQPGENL

Regarding `N#Cc1ccc2[nH]c(O)c(-c3ccc(CN4CCOCC4)cn3)c2c1` [AZD-1080], the Ki in [1] was > 3.98 µM (inactive); in experiment [2] it was > 2.51 µM (inactive); in experiment [3], > 10 µM (inactive); in experiment [4] it was > 6.31 µM (inactive); in experiment [5], > 1.58 µM (inactive); in experiment [6], > 3.98 µM (inactive). The Ki in experiment [7] was > 7.94 µM (inactive); in experiment [8], > 3.16 µM (inactive); in experiment [9] it was > 3.98 µM (inactive); in [10] it was > 1.58 µM (inactive); in experiment [11] it was > 2.51 µM (inactive); in experiment [12] it was > 1.58 µM (inactive). Besides, the Ki in [13] was > 7.94 µM (inactive); in experiment [14], > 3.16 µM (inactive); in experiment [15], > 7.94 µM (inactive); in experiment [16], > 6.31 µM (inactive).
As for `O=C1C=C(N2CCOCC2)c2ccccc2C1=O`, the IC50 is > 39.8 µM (not active) in experiment [17] and 2.55 µM (active) in experiment [21]. In addition, the values for the EC50 in experiment [18] and in experiment [20] were > 120 µM (not active) and 8.37 µM (active), respectively. The AC50 in experiment [19] was 1.38 µM (active).
With `CCc1oc2ccccc2c1C(=O)c1cc(Br)c(O)c(Br)c1` [BENZBROMARONE], the IC50 in experiment [22] is 7.97 µM (not active) and 4.88 µM (not active).
